# In patent US7776863B2, “Methods of treating HIV infection” (priority 2004, dated 2010):
# Tested on: HIV-1 LAI
# Experiment: microbe, parasite or virus in culture
# Conditions: for Combination Indices at % HIV Inhibition (Confidence Interval) 50% / Combination Indices at % HIV Inhibition (Confidence Interval) 75% / Combination Indices at % HIV Inhibition (Confidence Interval) 90% / Overall Result (combined anti-HIV effect): Compound 1 + named drug; for Combination Indices at % HIV Inhibition (Confidence Interval) 50% / Combination Indices at % HIV Inhibition (Confidence Interval) 75% / Combination Indices at % HIV Inhibition (Confidence Interval) 90%: 95% confidence interval in parentheses; for Overall Result (combined anti-HIV effect): all ratios, MT-2 cells, HIV-1 LAI
# Description: Virus and cell lines. The T-cell lines, MT-2 and PM-1 were obtained through the AIDS Research and Reference Reagent Program, NIAID, and were contributed by Dr. D. Richman and Dr. R. Gallo, respectively. Both cell lines were cultured in RPMI 1640 medium supplemented with 10% fetal bovine serum, 2 mM L-glutamine and sub-cultured twice a week. The LAI strain of HIV-1 was obtained from the Fred Hutchinson Cancer Research Center, and the Bal strain was from NIH. Both virus stocks were amplified and titered in MT-2 cells (LAI) and PM-1 cells (Bal) using a virus infectivity assay.
# Drug Susceptibility and Cytotoxicity Assays. For drug susceptibility assays, MT-2 cells were infected with HIV-1 LAI (or PM-1 cells with HIV-1 Bal) at an MOI of 0.005, and seeded into 96-well microtiter plates (0.1×10^6 cells/ml) containing serial dilutions of test compounds. […] Each drug ratio consisted of an array of 3-fold serial dilutions, and was performed in quadruplicate. The plates were incubated at 37° C./5% CO2. The MT-2 cells infected with HIV-1 LAI were incubated for 5 days. On day-five post-infection, 20 μl from each well was harvested and quantitated by a reverse transcriptase (RT) assay, or in samples involving non-nucleoside RT inhibitors, an MTS assay. The PM-1 cells infected with HIV-1 Bal and used for studying the combinations with CCR5 inhibitors were incubated for six days. On day-six post-infection, 20 μl from each well was harvested, 20- and 50-fold diluted and quantitated by p24 assay. Cytotoxicity assays were performed using uninfected cells, exposed to the same drug combinations, and incubated for six days. Cell viability was determined by an MTS assay. The CC50 values were calculated by using the exponential form of the median effect equation as mentioned below for calculation of EC50.
# Analysis of Drug Combination Effects. For determination of CI values, drugs were diluted in a fixed ratio and multiple ratios were analyzed. The drug serial dilutions spanned a range of concentrations near the EC50 value of each compound, so that equivalent antiviral activities could be compared. Concentration-response curves were estimated for each individual drug and every combination using the median-effect equation. The equation was fit using a nonlinear regression routine (Proc Nlin) in PC SAS version 8.01 (SAS Institute Inc., SAS Version 8.01, Cary, N.C.: SAS Institute Inc., 1990).
# In this equation, Fa stands for “fraction affected,” and represents the fraction of the viral load that has been inactivated. […] ED50 is drug concentration that is expected to reduce the amount of virus by 50%, and m is a parameter that reflects the slope of the concentration-response curve.
# To assess antiviral effects of different drug combination treatments, combination indices (CIs) were calculated according to Chou and Rideout. The combination index was computed as CI=[D]1/[Dm]1+[D]2/[Dm]2
# In this equation [Dm]1 and [Dm]2 are the concentrations of drugs that would individually produce a specific level of effect, while [D]1 and [D]2 are the concentrations of drugs in combination that would produce the same level of effect.
# Theoretically, additivity is implied if the CI is equal to one, synergy if the CI is less than one, and antagonism if the CI is greater than one. […] At best, we can construct a range that contains the likely values for the CI, given the noise in the data. In this report, these ranges are reported in parentheses next to each point estimate of the CI. […] If the range fell entirely above 1.0, we would infer antagonistic behavior. If the range were to include 1.0, we would infer additivity.
# In carrying out the combination experiments below, the EC50 for Compound 1 and each comparator compound was determined during the course of each study, and used in the subsequent data analysis.
# [1] = EC50 ratio 1:1 (Compound 1:comparator)
# [2] = EC50 ratio 1:2.5 (Compound 1:comparator)
# [3] = EC50 ratio 2.5:1 (Compound 1:comparator)
# [4] = Human immunodeficiency virus 1, MT2, 120 h
Molecule,Combination Indices at % HIV Inhibition (Confidence Interval) 50% [1],Combination Indices at % HIV Inhibition (Confidence Interval) 75% [1],Combination Indices at % HIV Inhibition (Confidence Interval) 50% [2],Combination Indices at % HIV Inhibition (Confidence Interval) 75% [2],Combination Indices at % HIV Inhibition (Confidence Interval) 90% [2],Combination Indices at % HIV Inhibition (Confidence Interval) 50% [3],Combination Indices at % HIV Inhibition (Confidence Interval) 75% [3],Combination Indices at % HIV Inhibition (Confidence Interval) 90% [3],Overall Result (combined anti-HIV effect),EC50 [4],Combination Indices at % HIV Inhibition (Confidence Interval) 90% [1],EC50 (LAI),Overall Result (combined anti-HIV effect) (listed as efavirenz),Overall Result (combined anti-HIV effect) (listed as nevapiradine)
"Cc1cccc(C)c1OCC(=O)N[C@@H](Cc1ccccc1)[C@@H](O)C[C@H](Cc1ccccc1)NC(=O)[C@H](C(C)C)N1CCCNC1=O [Lopinavir, lopinavir]","0.47 (0.38, 0.56)","0.66 (0.48, 0.84)","0.89 (0.73, 1.05)","0.90 (0.67, 1.13)","1.00 (0.60, 1.40)","0.29 (0.25, 0.33)","0.37 (0.30, 0.44)","0.51 (0.37, 0.65)",Additive-,4 nM,,,,
enfuvirtide,"0.47 (0.40, 0.54)","0.53 (0.42, 0.65)","0.48 (0.37, 0.60)","0.60 (0.40, 0.80)","0.75 (0.35, 1.15)","0.35 (0.29, 0.40)","0.47 (0.37, 0.57)","0.63 (0.40, 0.86)",Synergistic,,"0.60 (0.39, 0.81)",1 nM,,
"Nc1ccn([C@@H]2CS[C@H](CO)O2)c(=O)n1 [Lamivudine, lamivudine]","0.75 (0.45, 1.05)","0.79 (0.35, 1.23)","0.13 (0.10, 0.16)","0.21 (0.16, 0.27)","0.39 (0.21, 0.58)","0.14 (0.10, 0.17)","0.26 (0.18, 0.33)","0.49 (0.22, 0.75)",,,"0.90 (0.11, 1.69)",,,
"O=C1Nc2ccc(Cl)cc2[C@@](C#CC2CC2)(C(F)(F)F)O1 [Efavirenz, efavirenz]","0.70 (0.50, 0.89)",,"0.47 (0.28, 0.65)","0.46 (0.21, 0.70)","0.45 (0.06, 0.83)","0.52 (0.36, 0.69)","0.39 (0.21, 0.57)","0.30 (0.08, 0.51)",Synergistic,1 nM,"0.32 (0.13, 0.50)",,synergistic,
"Cc1c(O)cccc1C(=O)N[C@@H](CSc1ccccc1)[C@H](O)CN1C[C@H]2CCCC[C@H]2C[C@H]1C(=O)NC(C)(C)C [Nelfinavir, nelfinavir]","0.39 (0.34, 0.44)","0.47 (0.39, 0.56)","0.41 (0.32, 0.50)","0.81 (0.57, 1.05)","1.61 (0.84, 2.37)","0.12 (0.09, 0.15)","0.32 (0.22, 0.42)","0.87 (0.38, 1.35)",Additive-,3 nM,"0.58 (0.41, 0.74)",,,
"CC(C)(C)NC(=O)[C@@H]1C[C@@H]2CCCC[C@@H]2CN1C[C@@H](O)[C@H](Cc1ccccc1)NC(=O)[C@H](CC(N)=O)NC(=O)c1ccc2ccccc2n1 [Saquinavir, saquinavir]","0.31 (0.28, 0.33)","0.31 (0.28, 0.35)","0.60 (0.52, 0.67)","0.67 (0.56, 0.79)","0.77 (0.56, 0.97)","0.39 (0.33, 0.45)","0.59 (0.46, 0.72)","0.90 (0.58, 1.22)",Synergistic,5 nM,"0.32 (0.26, 0.38)",,,
"CC(C)c1nc(CN(C)C(=O)N[C@H](C(=O)N[C@@H](Cc2ccccc2)C[C@H](O)[C@H](Cc2ccccc2)NC(=O)OCc2cncs2)C(C)C)cs1 [Ritonavir, ritonavir]","0.60 (0.49, 0.72)","0.61 (0.45, 0.77)","0.54 (0.45, 0.63)","0.58 (0.44, 0.71)","0.73 (0.46, 1.00)","0.23 (0.20, 0.26)","0.20 (0.17, 0.24)","0.19 (0.14, 0.24)",Synergistic,7 nM,"0.70 (0.41, 0.99)",,,
"Cc1ccnc2c1NC(=O)c1cccnc1N2C1CC1 [Nevirapine, nevirapine]","0.19 (0.15, 0.23)","0.22 (0.16, 6.28)","0.48 (0.35, 0.62)","0.66 (0.40, 0.92)","0.92 (0.35, 1.49)","0.58 (0.48, 0.67)","0.99 (0.76, 1.22)","1.71 (1.09, 2.33)",Additive-,107 nM,"0.26 (0.15, 0.38)",,,additive-synergystic
"CC(C)CN(C[C@@H](O)[C@H](Cc1ccccc1)NC(=O)O[C@H]1CCOC1)S(=O)(=O)c1ccc(N)cc1 [Amprenavir, amprenavir]","0.14 (0.11, 0.17)","0.35 (0.26, 0.45)","0.13 (0.09, 0.17)","0.27 (0.17, 0.38)","0.58 (0.19, 0.97)","0.46 (0.32, 0.60)","0.79 (0.46, 1.11)","1.33 (0.42, 2.25)",Additive-,11 nM,"0.87 (0.46, 1.28)",,,
